Several values for one entry are separate records, joined by “and”; a condition that tells them apart may be missing. Equal entries are not always repeated. Where two headings read alike, the source gives them in different places.
Legend:
[1] = test system: S. aureus (MN8); type: cell-based, Staphylococcus aureus
[2] = test system: TSST-1; type: cell-based, Staphylococcus aureus

Row | Molecule | CFU/mL [1] | Reduction of Toxin % [2] | ng TSST-1 per OD Unit [2] | Optical Density ([1]; 0.01% test compound, Table 3) | other results
1 | CC(=O)/C=C/C1=C(C)CCCC1(C)C [Beta-ionone] | 1.8E + 08 CFU/mL | 100% | none | – | Optical Density [1]: 0.688
2 | CC(C)=CCC/C(C)=C/CO [Geraniol] | 3.2E + 08 CFU/mL | 99% | 26 ng TSST-1 per OD Unit | 0.0569 | –
3 | C=CC(C)(O)CCC=C(C)C (centres unmarked) [Linalool] | 2.0E + 09 CFU/mL | 88% | 421 ng TSST-1 per OD Unit | 0.600 | –
4 | CC1CCC(C(C)C)C(O)C1 (centres unmarked) [Menthol] | – | – | – | – | effect on the growth of S. aureus cells [1]: minimal, if any, effect; Optical Density ([1]; 0.1% test compound (in methanol), S. aureus MN8, 24 h, 600 nm): 0.621; CFU/mL ([1]; 24 h): 6.3E + 08 CFU/mL; ng TSST-1 per OD Unit ([2]; 24 h): 33 ng TSST-1 per OD Unit
5 | CC1(O)CCC(C(C)(C)O)CC1 (centres unmarked) [p-menthane-1,8-diol] | 2.0E + 09 CFU/mL | 78% | 792 ng TSST-1 per OD Unit | – | Optical Density ([1]; 0.7% test compound, Table 3): 0.620
6 | myreth-3-myristate [Cetiol] | – | – | – | – | CFU/mL × 10^8 [1]: 4.2 and 5.9 and 5.0; ng TSST-1 per CFU [2]: 371 ng TSST-1 per CFU and 196 ng TSST-1 per CFU and 200 ng TSST-1 per CFU; ng TSST-1 per mL [2]: 1556 ng TSST-1 per mL and 1147 ng TSST-1 per mL and 989 ng TSST-1 per mL
